Patent US20250032484A1, “THERAPEUTIC TARGETS AND AGENTS FOR THE TREATMENT OF POSTTRAUMATIC STRESS DISORDER” (priority 2021, published 2025)

Assays:
[1] = tested on: VA patients with PTSD (PTSD symptoms, PTSD Checklist); test: TreeScan nested case-control study of medications associated with PTSD symptom improvement (PTSD Checklist) in VA records; format: in vivo, human
Protocol: Study Sample and Data Sources. A nested case-control study was conducted within a previously established retrospective cohort that included all VA users with a clinical diagnosis of PTSD (International Classification of Diseases [ICD]-9:309.81, ICD-10: F43.1x) from Oct. 1, 1999 through Sep. 30, 2019 (Shiner et al. (2021) J Eval Clin Pract.). The data source contains information on services use, clinical diagnoses, filled prescriptions, and patient-reported outcome measures (PROMs) for PTSD using the PTSD Checklist (PCL) for these patients. This study was approved by the Veterans Institutional Review Board of Northern New England.
The goal of the current study was to evaluate any filled medications associated with PTSD symptom improvement, and as such, the analytic sample for this study included only patients with PROMs that were at least 30 days apart. 30 days was selected to allow for medications to be taken for at least one full course (typically 28 days). Patients with PROMs more than 365 days apart were excluded as these are unlikely to provide an accurate assessment of PTSD symptom change between the two time points. For patients who had two overlapping PROM intervals, those closest to 84 days in length were chosen to emulate typical PTSD medication efficacy trials (Watts et al. (2013) J Clin Psychiatry. 74: e541-550). When a patient had two or more overlapping intervals at exactly 84 days, the historically earliest interval was chosen. If patients had multiple non-overlapping intervals, all were included. Patients who met the selection criteria for PTSD in the original cohort and had at least one PROM pair where they started a new medication (defined below) constituted the overall analytic sample for the current study.
PTSD Improvement Cases and No Improvement Controls. In order to maximize the number of patients with available symptomatic measurement, two different versions of a PROM for PTSD were integrated into a single dataset (Shiner et al. (2021) J Eval Clin Pract.). The two PROMs were the PCL versions aligned to the Diagnostic and Statistical Manual of Mental Disorders (DSM), version IV and Version 5 (APA (2000): Diagnostic and Statistical Manual of Mental Disorders. 4th Edition. Text Revision: DSM-IV-TR. Arlington, VA: American Psychiatric Association: APA (2013): Diagnostic and Statistical Manual of Mental Disorders: Fifth Edition (DSM-5). Washington, D.C.: American Psychiatric Association), which will heretofore be called the PCL-IV and the PCL-5 (Blevins et al. (2015) J Trauma Stress. 28:489-498: Weathers et al. (1993) Trauma. Coping. and Adaptation. San Antonio, Texas: International Society for Traumatic Stress Studies, 9th Annual Meeting). […] A validated crosswalk (ICC=0.96) was used to convert all values to PCL-5 scoring (Moshier et al. (Under review): An empirical crosswalk for the PTSD Checklist: Translating DSM-IV to DSM-5). PTSD improvement cases were defined by a clinically meaningful improvement, which was a decrease of 15 points or more between assessment points (Lee et al. (2019) Reliable Change Index and Clinically Significant Margins for the CAPS-5 and PCL-5 among Veterans. Boston, MA: International Society for Traumatic Stress Studies, 35th Annual Meeting). […] Thus, the no PTSD improvement control group was defined as worsening of symptoms or reductions of up to 7 points on the PCL. Improvements between 8 and 14 points were of uncertain clinical significance and were therefore excluded.
Identification and Classification of New Medications. The predictors of interest were initiation of medications for any indication. Candidate agents included those that were started in the interval between PCL pairs and continued for at least a 28-day supply. When patients started multiple medications between a given PCL pair, they contributed information for each of the medications in the tree.

[2] = FDA clinical review NDA 209394; cited from earlier work
[3] = baseline PCL 38 or higher, PTSD diagnosis within 30 days, without any concurrent evidence-based treatment
[4] = baseline PCL score of 38 or higher and PTSD diagnosis within 30 days
[5] = overall sample without any concurrent evidence-based treatment

With glecaprevir the “EXP = Expected Cases” value ([1]; all patients in the overall sample) was 16, the “EXP = Expected Cases” value [1, 3] was 4 and the “O:E = Observed Cases over Expected Cases” value [1, 3] was 3.52. The “OBS = Observed Cases” value [1, 3] was 14, the “EXP = Expected Cases” value [1, 4] was 14 and the “O:E = Observed Cases over Expected Cases” value [1, 4] was 2.21. The “OBS = Observed Cases” value [1, 4] was 30, the “OBS = Observed Cases” value ([1]; case = improved by 15 or more points on PTSD Checklist, all patients in the overall sample) was 33 and the “O:E = Observed Cases over Expected Cases” value ([1]; improvement in PTSD, all patients in the overall sample) was 2.09. For the same substance, the “O:E = Observed Cases over Expected Cases” value ([1]; improvement in PTSD, all patients in the overall sample, listed as glecaprevir) was 2.09, the “EXP = Expected Cases” value [1, 5] was 5 and the “O:E = Observed Cases over Expected Cases” value [1, 5] was 3.09. For the same substance, the “OBS = Observed Cases” value [1, 5] was 14 and the BBB permeability [2] was “poor BBB permeability”.
